The supplement of paper PMC10290057

Tests used:
[1] = tested on: HCT116; test: efficacy (fitted maximal change in viability relative to DMSO control); higher = less cytotoxic (negative = loss of viability); settings: 48 h
[2] = tested on: HCT116; test: AC50 cell viability (CellTiter-Glo); higher = less potent; settings: 48 h
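Wherever AC50 cell viability (CellTiter-Glo) is given: HCT116 colorectal carcinoma cells screened at five concentrations per compound, luminescent viability scaled between DMSO wells and empty wells on each plate, curves fitted per compound.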
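Wherever efficacy (fitted maximal change in viability relative to DMSO control) is given: Luminescence-based viability readout, five doses per compound, normalized against on-plate DMSO and empty-well controls, followed by dose-response curve fitting for every drug.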

| Compound | efficacy [1] [%] | AC50 cell viability [2] [µM] |
| --- | --- | --- |
| Cc1ccc(-n2c(C)cc(-c3nnc4n3CCCCC4)c2C)cc1 | -47.3 | 20.9 |
| Cc1c(C(=O)N2CCOc3ccc(-c4ccc(N)nc4)cc3C2)ccc([S+](C)(=O)[O-])c1F [XL-388] | -65.5 | 10.5 |
| COc1cc(N2CCC(N3CCN(C)CC3)CC2)ccc1Nc1ncc(Cl)c(Nc2ccccc2P(C)(C)=O)n1 [Brigatinib] | -75.3 | 0.525 |
| Clc1ccccc1C(c1ccccc1)(c1ccccc1)n1cccn1 [TRAM-34] | -41.5 | 18.6 |
| N#CC(c1ccnc(NCCc2cccnc2)n1)c1nc2ccccc2s1 (centres undefined) [JNK Inhibitor V] | -92.2 | 8.33 |
| CC(C)NCCCn1c(Sc2cc(Cl)cc(Cl)c2)nc2c(N)ncnc21 [PU-WS-13] | -82.4 | 20.9 |
| CC(C)[C@@H](N(CCCN)C(=O)C1=CC=C(C)C=C1)C/2=N/C3=CC(=CC=C3C(=O)N2CC4=CC=CC=C4)Cl [Ispinesib] | -94.4 | 0.0295 |
| COCCOC(=O)C/1=C(C)/NC/2=C(C1C3=CC=CC(=C3)O)/C(=O)CC(C2)C4=C(OC)C=CC=C4 (centres undefined) [HPI-1] | -73.6 | 14.8 |
| C[C@@H]1COCCN1c1cc(C2([S@+](C)(=N)[O-])CC2)nc(-c2ccnc3[nH]ccc23)n1 [AZD-6738] | -84.1 | 8.33 |
| Cl.Cl.Cl.O[C@@H](COc1cccc2ncccc12)CN1CCN([C@@H]2c3ccccc3[C@@H]3[C@H](c4ccccc42)C3(F)F)CC1 [Zosuquidar trihydrochloride] | -97 | 16.6 |
| C=CC(=O)Nc1cccc(Nc2nc(Nc3ccc(OCCOC)cc3)ncc2F)c1 [Spebrutinib (AVL-292)] | -107 | 14.8 |
| CC(=O)O/N=C1/C(=C2\C(=O)Nc3cc(Br)ccc32)Nc2ccccc21 [6-Bromoindirubin-3'-acetoxime] | -92.3 | 10.5 |
| C[C@H](NC(=O)CCC(F)(F)F)C(=O)N[C@@H]1C(=O)N(CCO)c2ncccc2-c2ccccc21 [Crenigacestat] | -44.7 | 0.332 |
| Oc1c(Cl)cc(Cl)c2cccnc12 [Chloroxine] | -86.7 | 13.2 |
| CN[S+](=O)([O-])c1ccc2c(c1)/C(=C/c1[nH]c3c(c1CCCN1CCN(C)CC1)CCCC3)C(=O)N2 [PRP01-012] | -103 | 14.8 |
| CNC(=O)c1cccc2cc(Oc3ccnc4cc(OCC5(N)CC5)c(OC)cc34)ccc12 [Lucitanib] | -96.6 | 14.8 |
| CCCC(CCC)C(=O)NC/1=N/C(=O)N(/C=C1)[C@@H]2O[C@H](CO)[C@@H](O)C2(F)F | -48.1 | 2.63 |
| CC1(N)CCN(c2cccnc2NC(=O)c2nc(-c3ncccc3C(F)(F)F)cnc2N)CC1 [LXS-196] | -70.1 | 16.6 |
| O=C1Nc2ccc(Cl)cc2[C@@](C#CC2CC2)(C(F)(F)F)O1 [Efavirenz] | -97.1 | 26.3 |
| O=C\1NC(=O)\C(=C1C2=C[NH]C3=C2C=CC=C3)C4=C[NH]C5=C4C=CC=C5 [Bisindolylmaleimide] | -85.7 | 18.6 |
| Fc1ccc2[nH]ccc2c1-c1nc(N2CCOCC2)c2sc(CN3CCN(CC4CC4)CC3)cc2n1 [PI-3065] | -95.1 | 18.6 |

| Compound | efficacy [1] [%] | AC50 cell viability [2] [µM] |
| --- | --- | --- |
| CN1C(=O)\C(=C/C(=C1/NC2=C(F)C=C(I)C=C2)C(=O)NOCCO)C [AZD-8330] | -68.6 | 0.00934 |
| C[C@@H]1CC2C3C[C@H](F)C\4=C\C(=O)\C=C/[C@]4(C)[C@@]3(F)[C@@H](O)C[C@]2(C)[C@@]1(OC(=O)C5=CC=CO5)C(=O)SCF (some centres undefined) [Fluticasone furoate] | -76.9 | 20.9 |
| CNC(=O)[C@@H](NC(=O)[C@H](CC(C)C)[C@H](O)C(=O)NO)C(C)(C)C [Marimastat] | -54.3 | 20.9 |
| Cc1ccc(NC(=O)Nc2cc(C(F)(F)F)ccc2F)cc1Nc1ccc2c(c1)NC(=O)/C2=C\c1ccc[nH]1 [GNF-5837] | -97.5 | 14.8 |
| CCCCc1ccc2[nH]c(NC(=O)OC)nc2c1 [Parbendazole] | -63.1 | 0.105 |
| COc1cc(Nc2cnc(C#N)c(O[C@H](C)CN(C)C)n2)ncc1-c1cnn(C)c1 | -121 | 11.8 |
| O=C(c1ccc(/C=C/c2n[nH]c3ccccc23)cc1)N1CCNCC1 [KW-2449] | -96.6 | 8.33 |
| COc1cc2ncnc(Nc3cccc(Cl)c3)c2cc1OC [AG-1478] | -91.8 | 23.5 |
| c1cn2cc(-c3ccc4cn[nH]c4c3)nc(Nc3ccc(N4CCOCC4)cc3)c2n1 [Entospletinib] | -34.9 | 5.9 |
| Cc1ccc(Nc2nnc(Cc3ccncc3)c3ccccc23)cc1Br [ACC-789] | -84.8 | 20.9 |
| C[C@@H]1CC[C@H]2[C@@H](C)C(=O)O[C@@H]3O[C@@]4(C)CC[C@@H]1[C@]32OO4 [Artemisinin] | -30.7 | 0.0295 |
| COc1ccc([C@@H](O)[C@@H](C)Oc2ccc([C@H]3O[C@H](c4ccc(O[C@H](C)[C@H](O)c5ccc(OC)c(OC)c5)c(OC)c4)[C@H](C)[C@H]3C)cc2OC)cc1OC [Manassantin A] | -81 | 0.372 |
| O=C(c1ccc(F)c(F)c1Nc1ccc(I)cc1F)N1CC(O)([C@@H]2CCCCN2)C1 [Cobimetinib] | -105 | 1.86 |
| CN(C)c1ccc2cc(C(=O)N[C@@H](CCCNC(=N)CCl)C(=O)NCc3ccccc3)ccc2c1 [YW3-56] | -56.2 | 20.9 |
| OC(=O)C1=CC=C(NC2=NC3=C(C\N=C(/C4=CC(=CC=C34)Cl)C5=C(F)C=CC=C5F)C=N2)C=C1 [MLN-8054] | -38.3 | 0.332 |
| Clc1ccc(C(Cn2ccnc2)OCc2c(Cl)cccc2Cl)c(Cl)c1 (centres undefined) [Isoconazole nitrate] | -77.2 | 23.5 |
| Cc1cc(OCCCc2c3n(c4c(-c5c(C)nn(C)c5C)c(Cl)ccc24)[C@H](C)CN(c2cn(C)c4ccc(C(=O)O)cc24)C3=O)cc(C)c1Cl | -93.6 | 16.6 |
| CCn1nnc2c(N3CCOCC3)nc(-c3ccc(NC(=O)Nc4ccc(C(=O)N5CCN(C)CC5)cc4)cc3)nc21 [PKI-402] | -64.4 | 0.118 |
| CCC[S+](=O)([O-])c1nc(NC2CC2)cc(-c2ccc3c(ccn3C3CC(C)(C)NC(C)(C)C3)c2)n1 [NVS-CECR2-1] | -93.7 | 2.78 |
| COC(=O)c1ccc([C@H]2c3[nH]c4ccccc4c3C[C@H](C(=O)OC)N2C(=O)CCl)cc1 [RSL3] | -110 | 11.8 |
| CC(C)(NC(=O)O[C@@H]1CN2CCC1CC2)c1csc(-c2ccc(F)cc2)n1 [Ibiglustat] | -43.3 | 18.6 |
